In patent publication US9957252B2, “Metalloenzyme inhibitor compounds as fungicides” (Dow AgroSciences LLC, priority 2014, dated 2018):
Read-outs that look alike come from different tables or passages of the source.

What was measured:
Format in all cases: in vivo, Mycosphaerella graminicola on wheat plants (variety Yuma)
[1] = test system: standard laboratory SEPTTR isolate (SI SEPTTR); Mycosphaerella graminicola; Anamorph: Septoria tritici; experiment: Leaf blotch of wheat fungicidal activity, Type B assay (10% EC formulation in 0.1% Trycol 5941, track sprayer 200 L/ha), standard laboratory isolate; conditions: Zymoseptoria tritici, 72 h, wheat seedlings (Yuma)
Procedure: (§1) Evaluation of Fungicidal Activity: Leaf Blotch of Wheat (Mycosphaerella graminicola; Anamorph: Septoria tritici; Bayer code SEPTTR):
(§2) For Type A assays, technical grades of the experimental fungicides in Table 4 below were dissolved in acetone, and then mixed with nine volumes of water containing 110 ppm Triton X-100. The fungicide solutions were applied onto wheat seedlings using an automated booth sprayer. For Type B assays, emulsifiable concentrate (EC) formulations of technical grades of experimental fungicides in Table 4 below were prepared at 10% (w/v), and then mixed with 150 volumes of 0.1% Trycol 5941. The fungicide solutions were applied onto wheat seedlings using an automated track sprayer at 200 L/ha. All sprayed plants were allowed to air dry prior to further handling.
(§3) Wheat plants (variety Yuma) were grown from seed in a greenhouse in 50% mineral soil/50% soil-less Metro mix until the first leaf was fully emerged, with 7-10 seedlings per pot. Prior to or after application of experimental fungicides, plants were inoculated either with spores of a standard laboratory SEPTTR isolate (SI SEPTTR) or with spores from a SEPTTR field isolate collected from Wellsbourne, England in 2012 (FI SEPTTR). After inoculation, the plants were kept for 3 days at 20° C. in 100% relative humidity (one day in a dark dew chamber followed by two days in a lighted dew chamber). Plants were then transferred to a 20° C. greenhouse for disease development. When disease symptoms were fully expressed on untreated plants, infection levels on treated plants were assessed on a scale of 0 to 100 percent disease severity. Percent disease control was calculated using the ratio of disease severity on treated plants relative to untreated plants.

[2] = test system: standard laboratory SEPTTR isolate (SI SEPTTR); Mycosphaerella graminicola; Anamorph: Septoria tritici; experiment: Leaf blotch of wheat fungicidal activity, Type A assay (technical grade in acetone/water with Triton X-100, booth sprayer), standard laboratory isolate; conditions: Zymoseptoria tritici, 24 h, 1 Day Protectant, wheat seedlings (Yuma), read-out: Disease control, SI SEPTTR Type A Assay (50 ppm) 1DP
Procedure: as §1, §2, §3

[3] = Leaf blotch of wheat fungicidal activity, Type B assay (10% EC formulation in 0.1% Trycol 5941, track sprayer 200 L/ha), field isolate; conditions: Zymoseptoria tritici, 72 h, field isolate (Wellsbourne, England 2012), wheat seedlings (Yuma)
Procedure: as §1, §2, §3

[4] = 3 Day Curative, read-out: Disease control, SI SEPTTR Type B Assay (100 g/ha) 3DC
[5] = 3 Day Protectant, read-out: Disease control, SI SEPTTR Type B Assay (100 g/ha) 3DP
[6] = 3 Day Curative, read-out: Disease control, FI SEPTTR Type B Assay (100 g/ha) 3DC
[7] = 3 Day Protectant, read-out: Disease control, FI SEPTTR Type B Assay (100 g/ha) 3DP

| SMILES | pest or weed control at 100 g/ha [1, 4] | pest or weed control at 100 g/ha [1, 5] | pest or weed control at 50 ppm [2] | pest or weed control at 100 g/ha [3, 6] | pest or weed control at 100 g/ha [3, 7] |
| --- | --- | --- | --- | --- | --- |
| CC(C)(C)C(O)(c1ccc(-c2cccc(OC(F)(F)F)c2)cc1)c1cncnc1 (stereo not drawn) [Compound 11] | 60 to 79% | 80 to 100% | 80 to 100% | 60 to 79% | 60 to 79% |
| CC(C)(C)C(O)(c1ccc(-c2ccc(OCC(F)(F)F)cc2)cc1)c1cncnc1 (stereo not drawn) [Compound 14] | 80 to 100% | 80 to 100% | 80 to 100% | 80 to 100% | 60 to 79% |
| CC(C)(C)C(O)(c1cncnc1)c1ccc(-c2ccc(OCC(F)(F)F)cc2)cc1Cl (stereo not drawn) [Compound 25] | 80 to 100% | 60 to 79% | 80 to 100% | 80 to 100% | 80 to 100% |
| CC(C)(C)C(O)(c1cncnc1)c1ccc(-c2ccc(OCC(F)(F)F)cc2)cc1F (stereo not drawn) [Compound 26] | 80 to 100% | 80 to 100% | 80 to 100% | 80 to 100% | 80 to 100% |
| CC(C)(C)C(O)(c1cncnc1)c1ccc(-c2ccc(C(F)(F)F)cc2F)cc1Cl (stereo not drawn) [Compound 30] | 80 to 100% | 80 to 100% | 80 to 100% | 80 to 100% | 80 to 100% |
| CC(C)(C)C(O)(c1ccc(-c2ccc(C3(C#N)CC3)cc2)cc1)c1cncnc1 (stereo not drawn) [Compound 32] | 80 to 100% | 80 to 100% | 80 to 100% | 60 to 79% | 80 to 100% |
